Test results: ChEMBL document CHEMBL1201862, “PubChem BioAssay data set” (2004)
Calls of active or inactive are those of the source. Rule as the data show it, for most assays here: actives have a measured EC50 and inactives only a lower limit.

Assays:
cells [1] = type: functional, cell-based
cells [2] = type: functional, cell-based; remark: listed apart in the source
[3] = biological target: Luciferin 4-monooxygenase (Photinus pyralis, UniProt P08659); experiment: firefly luciferase enzyme inhibitors, dose response, biochemical, luminescence (AID 1891)
[4] = Luminescence Cell-Based Dose Confirmation HTS to Identify Inhibitors of Platelet Dense Granule Release. [Related pubchem assays: 1663 (Primary HTS), 1678 (Summary of Project)]; type: functional
[5] = biological target: T1, Heat shock factor protein 1 (Mus musculus, UniProt P38532); experiment: HSF1 potentiators in luciferase reporter cells, confirmation, cell-based, NIH3T3, luminescence, dose retest (AID 435004); type: functional;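 also: stress induced by proteasome inhibitor MG132 added 30 min after compound; luciferase reporter driven by HSF1 response element in NIH3T3 cells; actives raise luminescence as potentiators of the MG132 stress response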
T1 sequence (P38532 whole entry): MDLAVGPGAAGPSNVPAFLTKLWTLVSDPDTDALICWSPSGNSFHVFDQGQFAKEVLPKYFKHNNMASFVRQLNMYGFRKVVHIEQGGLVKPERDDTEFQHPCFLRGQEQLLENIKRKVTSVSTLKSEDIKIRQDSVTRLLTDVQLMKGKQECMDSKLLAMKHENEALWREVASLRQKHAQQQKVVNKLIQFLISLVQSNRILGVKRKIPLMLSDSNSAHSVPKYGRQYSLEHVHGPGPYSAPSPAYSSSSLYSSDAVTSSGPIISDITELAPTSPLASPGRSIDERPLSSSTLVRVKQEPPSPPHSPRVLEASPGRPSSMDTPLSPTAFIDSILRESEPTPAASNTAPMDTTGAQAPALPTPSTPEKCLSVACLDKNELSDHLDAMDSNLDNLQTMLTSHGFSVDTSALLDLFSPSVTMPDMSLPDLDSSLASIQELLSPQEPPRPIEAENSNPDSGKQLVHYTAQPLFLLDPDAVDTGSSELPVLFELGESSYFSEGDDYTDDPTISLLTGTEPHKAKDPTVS

BJ [6] = experiment: cytotoxicity toward BJ-TERT fibroblasts, dose response, cell-based, RAS-independent, luminescence (AID 1933); type: functional; conditions: Homo sapiens
BJ [7] = experiment: cells; type: functional, cell-based; conditions: Homo sapiens
BJ [8] = experiment: cytotoxicity toward BJ-TERT-LT-ST fibroblasts, dose response, cell-based, RAS-independent, luminescence (AID 1935); type: functional; conditions: Homo sapiens;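 also: BJ fibroblasts immortalized with TERT plus LT and ST oncogenes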
[9] = cytotoxicity toward DRD oncogenic fibroblasts, dose response, cell-based, non-viral oncogenic, luminescence (AID 1934); type: functional; conditions: Homo sapiens
[10] = system: Streptococcus sp. 'group A'; experiment: growth inhibition of control SK(-) GAS strain, dose response, counter-screen for streptokinase expression inhibitor project, luminescence, kanamycin, BacTiterGlo, confirmation (AID 1900); type: functional, organism-based
Streptokinase A = biological target: T2, Streptokinase A (Streptococcus pyogenes serotype M1, UniProt P10520); experiment: S. pyogenes streptokinase expression inhibitors, potency, dose response, plasminogen activation absorbance, OD405 (AID 1914); type: functional, Streptococcus pyogenes M1 GAS;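 also: secreted streptokinase activity via plasminogen activation per viability signal from cell pellet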
T2 sequence (P10520 whole entry): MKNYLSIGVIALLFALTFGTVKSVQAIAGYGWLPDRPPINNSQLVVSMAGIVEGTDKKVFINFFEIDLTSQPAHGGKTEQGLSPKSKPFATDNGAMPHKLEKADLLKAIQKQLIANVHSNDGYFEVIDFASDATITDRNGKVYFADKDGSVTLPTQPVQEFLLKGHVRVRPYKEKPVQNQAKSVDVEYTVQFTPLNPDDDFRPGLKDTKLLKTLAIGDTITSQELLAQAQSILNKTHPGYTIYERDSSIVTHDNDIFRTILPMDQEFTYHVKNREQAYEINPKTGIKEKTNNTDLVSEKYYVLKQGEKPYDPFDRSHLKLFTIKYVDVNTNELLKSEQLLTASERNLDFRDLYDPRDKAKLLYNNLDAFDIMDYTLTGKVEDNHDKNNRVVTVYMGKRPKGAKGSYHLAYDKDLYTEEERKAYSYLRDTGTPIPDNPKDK

Streptococcus = experiment: Group A Streptococcus viability loss, dose response, counter-screen for streptokinase expression inhibitor project, luminescence, BacTiterGlo (AID 1915); type: functional, organism-based;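 also: potency for reduction of bacterial viability or growth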
[11] = biological target: T3, Corticotropin-releasing factor receptor 2/Corticotropin-releasing factor-binding protein (Homo sapiens, UniProt P24387+Q13324); experiment: Dose Response confirmation of uHTS hits for small molecule antagonists of the CRF-binding protein and CRF-R2 receptor complex.; type: functional; conditions: read-out: IC50_Mean
T3 sequence (Q13324 whole entry): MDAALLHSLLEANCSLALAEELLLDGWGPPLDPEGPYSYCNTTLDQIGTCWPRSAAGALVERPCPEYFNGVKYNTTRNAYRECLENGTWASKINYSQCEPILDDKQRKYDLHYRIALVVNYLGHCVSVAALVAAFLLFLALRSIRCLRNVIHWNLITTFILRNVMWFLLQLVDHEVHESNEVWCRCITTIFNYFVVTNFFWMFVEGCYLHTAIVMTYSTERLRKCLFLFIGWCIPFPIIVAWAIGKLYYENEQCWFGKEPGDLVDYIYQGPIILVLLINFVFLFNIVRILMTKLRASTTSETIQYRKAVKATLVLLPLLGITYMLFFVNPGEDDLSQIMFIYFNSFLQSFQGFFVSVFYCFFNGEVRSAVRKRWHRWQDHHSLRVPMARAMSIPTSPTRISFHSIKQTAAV
T3 sequence (P24387 whole entry): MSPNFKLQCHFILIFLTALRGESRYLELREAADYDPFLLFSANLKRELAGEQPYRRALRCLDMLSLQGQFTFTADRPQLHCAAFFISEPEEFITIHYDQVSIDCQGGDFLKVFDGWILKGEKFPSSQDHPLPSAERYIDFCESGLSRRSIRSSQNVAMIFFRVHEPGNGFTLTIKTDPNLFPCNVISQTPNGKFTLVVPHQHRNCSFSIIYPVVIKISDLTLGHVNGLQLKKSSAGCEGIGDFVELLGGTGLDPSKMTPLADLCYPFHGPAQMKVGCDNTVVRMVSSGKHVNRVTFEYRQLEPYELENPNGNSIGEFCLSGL

[12] = biological target: T3, Corticotropin-releasing factor receptor 2/Corticotropin-releasing factor-binding protein; experiment: activators of CRF receptor 2 with binding protein – uHTS hits, confirmation (AID 602473); type: functional; conditions: read-out: EC50_Mean
[13] = inhibitors of firefly luciferase expression or activity, dose response, H4 neuroglioma cells, luminescence (AID 1990); type: functional, cell-based
[14] = Luminescence Cell-Based Dose Response HTS to Identify Inhibitors of 5'UTR Stem-Loop Driven Prion Protein mRNA Translation in H4 Neuroglioblastoma Cells. [Related pubchem assays: 1827 (Project Summary), 1813 (Primary HTS)]; type: functional
[15] = inhibitors of SNCA 5'UTR-driven reporter translation, confirmation, H4 neuroglioma cells, luminescence (AID 1988); type: functional, cell-based
Cytochrome P450 2C9 = Cytochrome P450 2C9 (Homo sapiens, UniProt P11712)
Cytochrome P450 2C9, sequence (P11712 whole entry): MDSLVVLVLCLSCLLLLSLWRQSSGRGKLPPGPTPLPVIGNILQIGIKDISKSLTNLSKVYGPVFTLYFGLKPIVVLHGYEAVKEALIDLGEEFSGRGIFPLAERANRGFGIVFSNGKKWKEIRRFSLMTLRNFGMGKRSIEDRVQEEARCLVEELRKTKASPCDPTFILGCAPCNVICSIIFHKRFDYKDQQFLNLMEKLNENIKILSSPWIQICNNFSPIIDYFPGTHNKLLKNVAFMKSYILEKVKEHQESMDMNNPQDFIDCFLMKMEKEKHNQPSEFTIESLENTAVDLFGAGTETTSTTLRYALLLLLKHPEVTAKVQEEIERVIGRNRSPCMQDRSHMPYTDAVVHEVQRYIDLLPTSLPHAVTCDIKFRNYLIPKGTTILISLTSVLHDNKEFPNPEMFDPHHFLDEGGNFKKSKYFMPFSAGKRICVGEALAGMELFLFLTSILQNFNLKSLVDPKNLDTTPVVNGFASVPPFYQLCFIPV

Luciferin 4-monooxygenase, sequence (P08659 whole entry): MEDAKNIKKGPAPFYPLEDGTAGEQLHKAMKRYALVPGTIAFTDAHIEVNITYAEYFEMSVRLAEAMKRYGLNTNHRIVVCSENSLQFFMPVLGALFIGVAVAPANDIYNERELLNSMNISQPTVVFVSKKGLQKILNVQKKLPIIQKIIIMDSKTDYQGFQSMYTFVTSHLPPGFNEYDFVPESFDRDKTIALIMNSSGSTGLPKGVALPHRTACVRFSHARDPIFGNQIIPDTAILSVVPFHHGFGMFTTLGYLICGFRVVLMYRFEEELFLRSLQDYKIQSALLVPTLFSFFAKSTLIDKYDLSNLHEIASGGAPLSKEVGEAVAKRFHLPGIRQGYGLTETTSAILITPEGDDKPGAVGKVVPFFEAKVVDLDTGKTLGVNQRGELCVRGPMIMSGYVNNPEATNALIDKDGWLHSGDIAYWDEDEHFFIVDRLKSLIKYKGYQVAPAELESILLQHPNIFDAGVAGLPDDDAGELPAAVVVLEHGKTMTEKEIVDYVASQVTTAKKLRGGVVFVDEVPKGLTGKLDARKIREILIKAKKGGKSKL

For `O=C(Cn1c(SCC(=O)N2CCCc3ccccc32)nc2ccccc21)N1CCCC1`, the EC50 (cells [1]) was > 350 µM (not active) and the EC50 (cells [2]) was > 350 µM (not active).
For `CCCc1nc2oc3c(=O)nc[nH]c3c2c2c1CCCC2`, the EC50 [3] was > 112 µM (not active).
For `CCCc1nc2oc3c(O)ncnc3c2c2c1CCCC2`, the EC50 [4] was > 112 µM (not active).
For `CCOc1ccc(NC(=O)CSc2nnc(Cn3cnc4ccccc43)n2C)cc1`, the EC50 (cells [1]) was > 350 µM (not active) and the EC50 (cells [2]) was > 350 µM (not active).
For `COc1cc2nc(S)nc(NCc3cccs3)c2cc1OC`, the EC50 [5] was > 260 µM (inactive).
With `CC(=O)n1c(Cl)c(NC(=O)CCl)c2ccccc21` the EC50 (BJ [6]) was 25.1 µM (active), the EC50 (BJ [7]) was > 150 µM (not active) and the EC50 (BJ [8]) was > 150 µM (not active). The EC50 [9] was 29.7 µM (active).
With `CCCCCCC1CCC(c2nc(-c3ccncc3)no2)CC1` (stereo not given) the EC50 (cells [1]) was > 350 µM (not active) and the EC50 (cells [2]) was > 350 µM (not active).
For `Cc1ccc2cccc(NC(=O)C(F)(F)F)c2n1`, the EC50 [5] was > 260 µM (inactive).
For `Cc1ccccc1NS(=O)(=O)c1ccc(C)c(C(=O)N2CCOCC2)c1`, the EC50 [10] was > 150 µM (not active), the EC50 (Streptokinase A) was > 150 µM (not active) and the EC50 (Streptococcus) was > 150 µM (not active). The IC50 [11] was > 47.1 µM (inactive) and the EC50 [12] was > 53 µM (inactive).
For `CN1CC(C(=O)c2ccc(F)cc2)C(c2c(F)cccc2Cl)C1` (stereo not given), the EC50 [5] was > 260 µM (inactive).
In the case of `CC(NC(=O)CCc1nc2cc(S(=O)(=O)N3CCOCC3)ccc2n1C)c1ccc(S(N)(=O)=O)cc1` (stereo not given), the EC50 [3] was > 112 µM (not active) and the EC50 [4] was 41.7 µM (active).
For `Cc1nc2c(s1)sc1ccccc12`, the IC50 [11] was > 47.1 µM (inactive) and the EC50 [12] was > 53 µM (inactive).
With `CCOC(=O)C1=C(CNCc2ccccc2Cl)NC(=O)NC1c1cccc([N+](=O)[O-])c1` (stereo not given) the EC50 [3] was > 112 µM (not active) and the EC50 [4] was > 112 µM (not active).
With `Cc1cc(C)n2nc(/C(C#N)=C/c3ccccc3)c(C#N)c2n1` the IC50 [11] was > 47.1 µM (inactive) and the EC50 [12] was > 53 µM (inactive).
In the case of `Cc1nc2cc3[nH]c(C(F)(F)F)nc3cc2[nH]1`, the EC50 [5] was > 260 µM (inactive).
In the case of `C#CC[N+]1(CC#Cc2ccccc2)CCCCC1`, the EC50 [5] was > 260 µM (inactive).
With `Cc1nnc(N2CCC(C(=O)NC3CCC(C)CC3)CC2)c2nn(-c3ccc(Cl)cc3)c(C)c12` (stereo not given) the EC50 [13] was 14.7 µM (active), the EC50 [14] was > 120 µM (not active) and the EC50 [15] was > 120 µM (not active).
For `COC(=O)C(NC(=O)c1c(C)nn(C)c1Cl)c1ccccc1` (stereo not given), the EC50 (cells [1]) was > 350 µM (not active) and the EC50 (cells [2]) was > 350 µM (not active).
For `Cn1nnc(NC(=O)c2cccc([N+](=O)[O-])c2)n1`, the EC50 (cells [1]) was > 350 µM (not active) and the EC50 (cells [2]) was > 350 µM (not active).
With `Cc1ccc(S(=O)(=O)Nc2cc(-c3nn(C)c(=O)c4ccccc34)ccc2N2CCOCC2)cc1` the EC50 [13] was > 60 µM (not active), the EC50 [14] was > 120 µM (not active) and the EC50 [15] was 10.8 µM (active).
For `CCCC1(C(=O)OC)NC(c2ccco2)C2C(=O)N(C)C(=O)C21` (stereo not given), the EC50 [13] was > 120 µM (not active), the EC50 [14] was > 120 µM (not active) and the EC50 [15] was > 120 µM (not active).
With `Cc1ccc(-n2nc3c(c2NC(=O)c2ccc4c(c2)OCO4)CSC3)c(C)c1` the EC50 [5] was > 260 µM (inactive).
For `CCOC(=O)C(CC)(CC)C(=O)/C=C/c1cccc(Br)c1`, the EC50 (BJ [6]) was 10 µM (active), the EC50 (BJ [7]) was 16.6 µM (active) and the EC50 (BJ [8]) was 10.7 µM (inconclusive). For the same molecule, the EC50 [9] was 9.57 µM (active).
With `CCOC(=O)c1c(C)[nH]c(C)c1S(=O)(=O)N1CCN(c2ccc([N+](=O)[O-])cc2)CC1` the EC50 [13] was 23 µM (active), the EC50 [14] was > 120 µM (not active) and the EC50 [15] was > 120 µM (not active).
For `CCCCc1ccc(-c2ccc(C)cc2O)nc1`, the EC50 [14] was 11.7 µM (inconclusive) and the EC50 [15] was 4.33 µM (active).
In the case of `Cc1ccc(N(C(=O)Cn2nnc(-c3ccccc3)n2)C(C(=O)NC2CCCCC2)c2ccccn2)cc1C` (stereo not given), the IC50 [11] was > 47.1 µM (inactive) and the EC50 [12] was > 53 µM (inactive).
With `CCOc1ccc(N(CC(=O)NC2CCC(C)CC2)S(=O)(=O)c2c(C)noc2C)cc1` (stereo not given) the IC50 [11] was > 47.1 µM (inactive) and the EC50 [12] was > 53 µM (inactive).
In the case of `CC(C)COc1ccc(C(=O)Nc2ccc([N+](=O)[O-])cc2)cc1`, the EC50 (cells [1]) was > 350 µM (not active) and the EC50 (cells [2]) was > 350 µM (not active).
In the case of `O=[N+]([O-])c1ccc(N2CCN(S(=O)(=O)c3ccccc3)CC2)cc1NCC1CCCO1` (stereo not given), the EC50 [13] was 18.3 µM (active), the EC50 [14] was 40.6 µM (active) and the EC50 [15] was 19.2 µM (active).
With `CCc1nc2scc(-c3cccs3)c2c(=O)o1` the EC50 [3] was > 112 µM (not active) and the EC50 [4] was > 112 µM (not active).
With `COc1ccc(N2CCN(C(=O)c3csc4ccccc34)CC2)cc1` the IC50 [11] was > 47.1 µM (inactive) and the EC50 [12] was > 53 µM (inactive).
For `C=CCNC(=S)N/N=C/c1ccc(OCc2ccccc2)cc1`, the IC50 [11] was > 47.1 µM (inactive), the EC50 [12] was > 53 µM (inactive) and the AC50 (Cytochrome P450 2C9) was 15.8 µM (inconclusive).
For `C/C(=N\NC(=O)c1ccc2c(c1)OCCO2)c1ccccc1`, the EC50 [3] was 12.8 µM (active) and the EC50 [4] was 2.98 µM (active).
For `Cc1ccc2c(c1)Oc1ccccc1N=C2`, the IC50 [11] was > 47.1 µM (inactive) and the EC50 [12] was > 53 µM (inactive).
For `CCOc1ccc(/C=N/NC(=O)CN2CCCCCCC2)cc1`, the IC50 [11] was > 47.1 µM (inactive) and the EC50 [12] was > 53 µM (inactive).
